Assay results: patent US10597388B2, “Pyridazinone herbicides” (FMC CORPORATION, priority 2014, dated 2020)

Experiments:
Format in all cases: in vivo
kochia (Kochia scoparia) = assay: Test C greenhouse herbicide test, postemergence
Excerpt: (§1) At the same time, plants selected from these crop and weed species and also chickweed (common chickweed, Stellaria media), kochia (Kochia scoparia), and oat, wild (wild oat, Avena fatua), were planted in pots containing Redi-Earth® planting medium (Scotts Company, 14111 Scottslawn Road, Marysville, Ohio 43041) comprising spaghnum peat moss, vermiculite, wetting agent and starter nutrients and treated with postemergence applications of test chemicals formulated in the same manner. Plants ranged in height from 2 to 18 cm (1- to 4-leaf stage) for postemergence treatments. Treated plants and controls were maintained in a greenhouse for 13 to 15 d, after which time all species were compared to controls and visually evaluated. Plant response ratings, summarized in Table C, are based on a scale of 0 to 100 where 0 is no effect and 100 is complete control. A dash (-) response means no test result.

[1] = tested on: oat, wild (wild oat, Avena fatua); assay: Test C greenhouse herbicide test, postemergence
Excerpt: as §1

[2] = tested on: pigweed (Amaranthus retroflexus); assay: Test C greenhouse herbicide test, pre- and postemergence
Excerpt: (§2) Seeds of plant species selected from blackgrass (Alopecurus myosuroides), ryegrass, Italian (Italian ryegrass, Lolium multiflorum), wheat (winter wheat, Triticum aestivum), galium (catchweed bedstraw, Galium aparine), corn (Zea mays), large crabgrass, large (large crabgrass, Digitaria sanguinalis), foxtail, giant (giant foxtail, Setaria faberii), johnsongrass (Sorghum halepense), lambsquarters (Chenopodium album), morningglory (Ipomoea coccinea), nutsedge, yellow (yellow nutsedge, Cyperus esculentus), pigweed (Amaranthus retroflexus), ragweed (common ragweed, Ambrosia elatior), soybean (Glycine max), barnyardgrass (Echinochloa crus-galli), oilseed rape (Brassica napus), waterhemp (common waterhemp, Amaranthus rudis), and velvetleaf (Abutilon theophrasti) were planted into a blend of loam soil and sand and treated preemergence with test chemicals formulated in a non-phytotoxic solvent mixture which included a surfactant.
as §1

[3] = tested on: blackgrass (Alopecurus myosuroides); assay: as above
Excerpt: as §2, §1

[4] = tested on: wheat (winter wheat, Triticum aestivum); assay: as above
Excerpt: as §2, §1

[5] = tested on: foxtail, giant (giant foxtail, Setaria faberii); assay: as above
Excerpt: as §2, §1

[6] = tested on: galium (catchweed bedstraw, Galium aparine); assay: as above
Excerpt: as §2, §1

[7] = tested on: ragweed (common ragweed, Ambrosia elatior); assay: as above
Excerpt: as §2, §1

[8] = tested on: velvetleaf (Abutilon theophrasti); assay: as above
Excerpt: as §2, §1

[9] = tested on: morningglory (Ipomoea coccinea); assay: as above
Excerpt: as §2, §1

[10] = tested on: johnsongrass (Sorghum halepense); assay: as above
Excerpt: as §2, §1

[11] = tested on: barnyardgrass (Echinochloa crus-galli); assay: as above
Excerpt: as §2, §1

corn (Zea mays) = assay: as above
Excerpt: as §2, §1

[12] = tested on: crabgrass, large (large crabgrass, Digitaria sanguinalis); assay: as above
Excerpt: as §2, §1

[13] = tested on: oilseed rape (Brassica napus); assay: as above
Excerpt: as §2, §1

soybean (Glycine max) = assay: as above
Excerpt: as §2, §1

[14] = tested on: waterhemp (common waterhemp, Amaranthus rudis); assay: as above
Excerpt: as §2, §1

[15] = Postemergence, 31 g ai/ha, 0 to 100 scale (0 no effect, 100 complete control)
[16] = Postemergence, 125 g ai/ha, scale 0 to 100, 0 is no effect, 100 is complete control
[17] = Postemergence, 250 g ai/ha, scale 0 to 100, 0 no effect, 100 complete control, 13 to 15 d
[18] = postemergence, 62 g ai/ha, scale 0 to 100, 0 no effect, 100 complete control
[19] = Preemergence, 31 g ai/ha, scale 0 to 100, 0 is no effect, 100 is complete control
[20] = Preemergence, 62 g ai/ha, scale 0 to 100, 0 is no effect, 100 is complete control
[21] = Preemergence, 125 g ai/ha, scale 0 to 100, 0 is no effect, 100 is complete control
[22] = Preemergence, 250 g ai/ha, scale 0 to 100 (0 no effect, 100 complete control)

Cc1ccc2sc(C)c(-c3c(O)c(C)nn(C)c3=O)c2c1 [Compound 1, 4-(2,5-dimethylbenzo[b]thien-3-yl)-5-hydroxy-2,6-dimethyl-3(2H)-pyridazinone]
Kochia plant response rating (kochia (Kochia scoparia); [15]): 95 | Plant response rating, Kochia (kochia (Kochia scoparia); [16]): 95 | Plant response rating, Kochia (kochia (Kochia scoparia); [17]): 100 | Kochia plant response rating (kochia (Kochia scoparia); [18]): 95 | Oat, Wild plant response rating [1, 15]: 50 | Plant response rating, Oat, Wild [1, 16]: 85 | Plant response rating, Oat, Wild [1, 17]: 100 | Oat, Wild plant response rating [1, 18]: 70 | Pigweed plant response rating [2, 15]: 95 | Plant response rating, Pigweed [2, 16]: 98 | Plant response rating, Pigweed [2, 17]: 100 | Plant response rating, Pigweed [2, 19]: 100 | Plant response rating, Pigweed [2, 20]: 100 | Plant response rating, Pigweed [2, 21]: 100 | Pigweed plant response rating [2, 22]: 100 | Pigweed plant response rating [2, 18]: 95 | Blackgrass plant response rating [3, 15]: 20 | Plant response rating, Blackgrass [3, 16]: 60 | Plant response rating, Blackgrass [3, 17]: 75 | Plant response rating, Blackgrass [3, 19]: 60 | Plant response rating, Blackgrass [3, 20]: 90 | Plant response rating, Blackgrass [3, 21]: 90 | Blackgrass plant response rating [3, 22]: 90 | Blackgrass plant response rating [3, 18]: 50 | Wheat plant response rating [4, 15]: 0 | Plant response rating, Wheat [4, 16]: 10 | Plant response rating, Wheat [4, 17]: 15 | Plant response rating, Wheat [4, 20]: 0 | Plant response rating, Wheat [4, 21]: 5 | Wheat plant response rating [4, 22]: 20 | Wheat plant response rating [4, 18]: 0 | Foxtail, Giant plant response rating [5, 15]: 35 | Plant response rating, Foxtail, Giant [5, 16]: 60 | Plant response rating, Foxtail, Giant [5, 17]: 90 | Plant response rating, Foxtail, Giant [5, 19]: 55 | Plant response rating, Foxtail, Giant [5, 20]: 75 | Plant response rating, Foxtail, Giant [5, 21]: 100 | Foxtail, Giant plant response rating [5, 22]: 100 | Foxtail, Giant plant response rating [5, 18]: 15 | Galium plant response rating [6, 15]: 90 | Plant response rating, Galium [6, 16]: 95 | Plant response rating, Galium [6, 17]: 95 | Plant response rating, Galium [6, 19]: 90 | Plant response rating, Galium [6, 20]: 100 | Plant response rating, Galium [6, 21]: 95 | Galium plant response rating [6, 22]: 100 | Galium plant response rating [6, 18]: 95 | Ragweed plant response rating [7, 15]: 90 | Plant response rating, Ragweed [7, 16]: 95 | Plant response rating, Ragweed [7, 17]: 95 | Plant response rating, Ragweed [7, 19]: 90 | Plant response rating, Ragweed [7, 20]: 80 | Plant response rating, Ragweed [7, 21]: 100 | Ragweed plant response rating [7, 22]: 98 | Ragweed plant response rating [7, 18]: 95 | Velvetleaf plant response rating [8, 15]: 80 | Plant response rating, Velvetleaf [8, 16]: 95 | Plant response rating, Velvetleaf [8, 17]: 100 | Plant response rating, Velvetleaf [8, 20]: 90 | Plant response rating, Velvetleaf [8, 21]: 100 | Velvetleaf plant response rating [8, 22]: 98 | Velvetleaf plant response rating [8, 18]: 85 | Morningglory plant response rating [9, 15]: 100 | Plant response rating, Morningglory [9, 16]: 100 | Plant response rating, Morningglory [9, 17]: 100 | Plant response rating, Morningglory [9, 19]: 95 | Plant response rating, Morningglory [9, 20]: 100 | Plant response rating, Morningglory [9, 21]: 100 | Morningglory plant response rating [9, 22]: 100 | Morningglory plant response rating [9, 18]: 100 | Johnsongrass plant response rating [10, 15]: 0 | Plant response rating, Johnsongrass [10, 16]: 0 | Plant response rating, Johnsongrass [10, 17]: 15 | Plant response rating, Johnsongrass [10, 19]: 0 | Plant response rating, Johnsongrass [10, 20]: 5 | Plant response rating, Johnsongrass [10, 21]: 5 | Johnsongrass plant response rating [10, 22]: 5 | Johnsongrass plant response rating [10, 18]: 0 | Barnyardgrass plant response rating [11, 15]: 0 | Plant response rating, Barnyardgrass [11, 16]: 5 | Plant response rating, Barnyardgrass [11, 17]: 5 | Plant response rating, Barnyardgrass [11, 19]: 5 | Plant response rating, Barnyardgrass [11, 20]: 5 | Plant response rating, Barnyardgrass [11, 21]: 25 | Barnyardgrass plant response rating [11, 22]: 90 | Barnyardgrass plant response rating [11, 18]: 5 | Corn plant response rating (corn (Zea mays); [15]): 0 | Plant response rating, Corn (corn (Zea mays); [16]): 5 | Plant response rating, Corn (corn (Zea mays); [17]): 40 | Plant response rating, Corn (corn (Zea mays); [19]): 0 | Plant response rating, Corn (corn (Zea mays); [20]): 0 | Plant response rating, Corn (corn (Zea mays); [21]): 0 | Corn plant response rating (corn (Zea mays); [22]): 5 | Corn plant response rating (corn (Zea mays); [18]): 25 | Crabgrass, Large plant response rating [12, 15]: 20 | Plant response rating, Crabgrass, Large [12, 16]: 25 | Plant response rating, Crabgrass, Large [12, 17]: 35 | Plant response rating, Crabgrass, Large [12, 19]: 35 | Plant response rating, Crabgrass, Large [12, 20]: 40 | Plant response rating, Crabgrass, Large [12, 21]: 80 | Crabgrass, Large plant response rating [12, 22]: 100 | Crabgrass, Large plant response rating [12, 18]: 10 | Oilseed Rape plant response rating [13, 15]: 0 | Plant response rating, Oilseed Rape [13, 16]: 5 | Plant response rating, Oilseed Rape [13, 17]: 40 | Plant response rating, Oilseed Rape [13, 19]: 0 | Plant response rating, Oilseed Rape [13, 20]: 5 | Oilseed Rape plant response rating [13, 22]: 20 | Oilseed Rape plant response rating [13, 18]: 0 | Soybean plant response rating (soybean (Glycine max); [15]): 0 | Plant response rating, Soybean (soybean (Glycine max); [16]): 5 | Plant response rating, Soybean (soybean (Glycine max); [17]): 5 | Plant response rating, Soybean (soybean (Glycine max); [20]): 0 | Plant response rating, Soybean (soybean (Glycine max); [21]): 0 | Soybean plant response rating (soybean (Glycine max); [22]): 0 | Soybean plant response rating (soybean (Glycine max); [18]): 0 | Waterhemp plant response rating [14, 15]: 95 | Plant response rating, Waterhemp [14, 16]: 100 | Plant response rating, Waterhemp [14, 17]: 100 | Plant response rating, Waterhemp [14, 20]: 100 | Plant response rating, Waterhemp [14, 21]: 100 | Waterhemp plant response rating [14, 22]: 100 | Waterhemp plant response rating [14, 18]: 95
